Target: Hsp90 such as brain Hsp90
Test: EC50 for binding to Hsp90 such as brain Hsp90
Details: concentration yielding half-maximal binding to Hsp90 such as brain Hsp90, or halving binding in a competition assay
Description: Brain uptake may be indicative of binding of the epichaperome inhibitor to Hsp90 and preferably to brain Hsp90. Such binding assays may be carried out as described in published PCT application WO2008/005937.
BBB-permeable epichaperome inhibitors to be used in the methods provided herein may be further characterized by their EC50 for binding to Hsp90 such as brain Hsp90. (EC50, in this context, refers to the concentration of the inhibitor that yields half-maximal binding of the inhibitor to Hsp90 such as brain Hsp90, or alternatively if the measurement is performed in a competition assay it is the concentration of inhibitor at which the binding to Hsp90 is reduced by half.) Certain inhibitors may have an EC50 of 100 nM or less, including about 90 nM, about 80 nM, about 85 nM, about 70 nM, about 60 nM, about 50 nM, about 40 nM, about 30 nM, about 20 nM, about 10 nM, about 9 nM, about 8 nM, about 7 nM, about 6 nM, about 5 nM, about 4 nM, about 3 nM, about 2 nM, or about 1 nM. The EC50 might range from 0.1 to 10 nM, from 0.1 to 9 nM, from 0.1 to 8 nM, from 0.1 to 7 nM, from 0.1 to 6 nM, or from 0.1 to 5 nM. The EC50 might range from 0.1 to 20 nM, from 0.1 to 18 nM, from 0.1 to 15 nM, from 0.1 to 12 nM, or from 0.1 to 10 nM. In some instances, certain inhibitors have an EC50 of about 5-7 nM. […] In other instances, certain inhibitors have an EC50 of about 80-90 nM.

EC50: 6.9 nM
Structure (SMILES): CC(C)(C)CNCCn1c(Sc2cc3c(cc2I)OCO3)nc2c(N)ncnc21 [Compound 1]
